Results as given in patent publication US20220257552A1, “METHODS OF PRESCREENING AND TREATING BREAST CANCERS WITH SELECTIVE ANDROGEN RECEPTOR MODULATORS” (priority 2021, published 2022).

Columns and labels:
BR-0001 tumors = experiment: Microarray and AR ChIP-Seq of BR-0001 tumors; format: in vivo, mice
Experimental: Chromatin Immunoprecipitation Assay (ChIP). Proteins were cross-linked by incubation with 1% formaldehyde (final concentration) at 37° C. for 10 min. Tumors were homogenized using a probe hand-held homogenizer. The cells were washed with 1×PBS twice, scraped in 1 mL of PBS containing protease inhibitors ([[…] each of aprotinin, leupeptin, antipain, benzamidine HCl, and pepstatin/mL], 0.2 mM phenylmethylsulfonyl fluoride, and 1 mM sodium vanadate), pelleted, and resuspended in SDS lysis buffer (1% SDS, 10 mM EDTA, 50 mM Tris-HCl [pH 8.1]).
After lysis on ice for 10 min, the cell extract was sonicated (Branson sonifier 250) in a cold room eight times for 10 s each at constant duty cycle, with an output of 3 and with incubation on ice after every sonication. The debris was pelleted at 13,000 rpm for 10 min at 4° C., and the supernatant was diluted 10-fold with ChIP dilution buffer (0.01% SDS, 1.1% Triton X-100, 1.2 mM EDTA, 16.7 mM Tris HCl [pH 8.1], 167 mM NaCl). The proteins were precleared with 50 μL of 1:1 protein A-Sepharose beads in TE. […]
In the gene expression study described above, RNA was isolated from the BR-0001 TNBC tumors and the expression of genes in the entire genome was measured by microarray (Affymetrix, ST2.0 array). […]

[1] = Phase 1 multiple ascending dose study G100402; format: in vivo, human
Excerpt: These include: 1. Protocol G100401, a Phase 1 single ascending dose study in 96 healthy, young, male volunteers; 2. Protocol G100402, a Phase 1 multiple ascending dose study in 50 healthy, young, male volunteers, and 23 elderly male volunteers with truncal obesity; 3. Protocol G100503, a Phase 1 single dose pharmacokinetic study to assess the effect of a dosage regimen that simulates a sustained release formulation to an immediate release formulation in 18 healthy, young male volunteers and 18 postmenopausal women; 4. Protocol G100506, a Phase 1 single dose pharmacokinetic study to assess the relative bioavailability of a 3 mg hard shell capsule formulation to be used during continued clinical development and to assess the effect of food on the pharmacokinetics of the 3 mg softgel formulation in 27 healthy, young, male volunteers; 5. Protocol 006, a Phase 1 single dose and multiple dose pharmacokinetic study in 24 postmenopausal, Japanese women; 6. Protocol G200501, a Phase 2 study in 60 postmenopausal women and 60 elderly men to assess lean body mass and physical function; 7. Protocol 003, a Phase 1b study in 44 postmenopausal women; 8. Protocol G200502, a Phase 2b study in 159 men and postmenopausal women with cancer to assess lean body mass and physical function; 9.
Both 10 mg and 30 mg daily doses were evaluated in Protocol G100402 for up to 14 days. […]

HCI-13 tumors = experiment: Affymetrix microarray of HCI-13 PDX tumors; set-up: species or system mice; details: mouse, in vivo
Experimental: RNA from tumors was extracted and verified qualitatively and quantitatively. Total RNA (200 ng/sample; n=4/group) from each sample was amplified and labeled using the WT Plus Kit from Affymetrix and processed according to Affymetrix protocol. The arrays (Human ST2.0, Affymetrix, Santa Clara, Calif.) were washed and stained on Affymetrix Fluidics station 450 and scanned on an Affymetrix GCS 3000 scanner.
Data from microarrays were normalized using Affymetrix Expression Console. Mean, Standard Deviation, and Variance were calculated across the groups. Fold Change from vehicle-treated samples was calculated, and a fold change of 1.5 was used as cutoff Student's t-test was used to determine the significance and a cutoff of p value<0.05 was used for significance discovery. False discovery rate was calculated using Benjamini & Hochberg method, and a cutoff for FDR<0.05 was used to create a significant differential expression list. The gene candidate list was loaded to Ingenuity Pathway Analysis and gene set enrichment analysis (GSEA) performed for further discovery. Microarray experiments were performed at the UTHSC Molecular Resources Center (MRC), and data analysis was performed by the UTHSC Molecular Bioinformatics (mBio) core facility.

C[C@](O)(COc1ccc(C#N)cc1)C(=O)Nc1ccc(C#N)c(C(F)(F)F)c1 [Formula IX, (S)—N-(4-Cyano-3-(trifluoromethyl)phenyl)-3-(4-cyanophenoxy)-2-hydroxy-2-methylpropanamide]
AR-occupied promoters with the gene up-regulated (BR-0001 tumors; mouse, in vivo): 20%
promoters to which AR was recruited (BR-0001 tumors; −5 kb to +1 kb): 176 promoters
subjects with ALT increases above two times the ULN ([1]; 30 mg dose group): six
tolerability ([1]; daily doses up to 30 mg, healthy male volunteers): well tolerated
members of histone group inhibited (HCI-13 tumors): About 17
